Common to all, as to assay type: biochemical
In experiment [1] the target is CDK4/Cyclin D1 (Homo sapiens, UniProt P11802). Kind of experiment: CDK4/Cyclin D1 in vitro kinase inhibition (Biological Example 1 of WO2022/111621). How it is done: (§1) Biological activity for representative compounds of the present disclosure were tested according to those described in Biological Example 1 in PCT/CN2021/133429, published as WO2022/111621 on Jun. 2, 2022.

Experiment [2] addresses CDK6/Cyclin D1 (Homo sapiens, UniProt Q00534). Kind of experiment: CDK6/Cyclin D1 in vitro kinase inhibition (Biological Example 1 of WO2022/111621). How it is done: as §1
Experiment [3] concerns the target CDK7/Cyclin H/MAT1 (Homo sapiens, UniProt P50613). Kind of experiment: CDK7/Cyclin H/MAT1 in vitro kinase inhibition (Biological Example 1 of WO2022/111621). Here is the method: as §1
For experiment [4], the target named is CDK9/Cyclin T1 (Homo sapiens, UniProt P50750). Kind of experiment: CDK9/Cyclin T1 in vitro kinase inhibition (Biological Example 1 of WO2022/111621). Here is the method:
as §1

CDK7/Cyclin H/MAT1, sequence (P50613 whole entry): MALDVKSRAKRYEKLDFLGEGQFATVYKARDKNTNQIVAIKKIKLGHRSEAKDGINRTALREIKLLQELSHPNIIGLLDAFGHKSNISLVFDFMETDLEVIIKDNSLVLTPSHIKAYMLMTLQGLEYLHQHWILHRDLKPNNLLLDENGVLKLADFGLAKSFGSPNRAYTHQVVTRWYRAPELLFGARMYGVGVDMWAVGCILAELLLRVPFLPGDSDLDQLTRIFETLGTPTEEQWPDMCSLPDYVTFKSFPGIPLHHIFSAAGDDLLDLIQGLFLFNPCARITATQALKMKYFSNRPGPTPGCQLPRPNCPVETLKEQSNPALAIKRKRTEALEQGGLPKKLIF
CDK7/Cyclin H/MAT1, sequence (P51946 whole entry partner): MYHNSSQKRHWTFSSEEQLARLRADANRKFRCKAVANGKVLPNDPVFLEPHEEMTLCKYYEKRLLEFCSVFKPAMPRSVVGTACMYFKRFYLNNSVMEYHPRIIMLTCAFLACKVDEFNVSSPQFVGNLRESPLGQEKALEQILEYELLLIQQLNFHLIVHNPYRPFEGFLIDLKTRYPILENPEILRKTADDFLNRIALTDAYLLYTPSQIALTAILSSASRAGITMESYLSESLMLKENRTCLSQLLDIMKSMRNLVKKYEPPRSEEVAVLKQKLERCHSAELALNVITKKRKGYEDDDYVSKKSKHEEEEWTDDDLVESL
CDK7/Cyclin H/MAT1, sequence (P51948 whole entry partner): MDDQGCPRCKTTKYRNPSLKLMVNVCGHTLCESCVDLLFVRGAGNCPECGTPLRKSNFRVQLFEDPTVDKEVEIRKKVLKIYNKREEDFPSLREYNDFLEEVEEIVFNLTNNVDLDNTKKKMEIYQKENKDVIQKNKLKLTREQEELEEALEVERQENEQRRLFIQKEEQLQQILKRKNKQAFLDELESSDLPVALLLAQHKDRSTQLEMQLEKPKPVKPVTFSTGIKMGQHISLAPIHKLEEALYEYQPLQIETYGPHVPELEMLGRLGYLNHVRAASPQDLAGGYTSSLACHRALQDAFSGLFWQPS
CDK6/Cyclin D1, sequence (Q00534 whole entry): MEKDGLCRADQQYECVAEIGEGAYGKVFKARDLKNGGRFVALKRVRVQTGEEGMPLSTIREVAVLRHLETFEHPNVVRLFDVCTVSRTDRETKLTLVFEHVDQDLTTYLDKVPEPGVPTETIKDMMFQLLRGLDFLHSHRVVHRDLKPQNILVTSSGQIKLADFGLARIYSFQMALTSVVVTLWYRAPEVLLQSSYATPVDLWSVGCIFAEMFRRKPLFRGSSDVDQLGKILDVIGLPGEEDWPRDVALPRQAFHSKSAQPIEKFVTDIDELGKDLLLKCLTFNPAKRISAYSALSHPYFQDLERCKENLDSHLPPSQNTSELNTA
CDK6/Cyclin D1, sequence (P24385 whole entry partner): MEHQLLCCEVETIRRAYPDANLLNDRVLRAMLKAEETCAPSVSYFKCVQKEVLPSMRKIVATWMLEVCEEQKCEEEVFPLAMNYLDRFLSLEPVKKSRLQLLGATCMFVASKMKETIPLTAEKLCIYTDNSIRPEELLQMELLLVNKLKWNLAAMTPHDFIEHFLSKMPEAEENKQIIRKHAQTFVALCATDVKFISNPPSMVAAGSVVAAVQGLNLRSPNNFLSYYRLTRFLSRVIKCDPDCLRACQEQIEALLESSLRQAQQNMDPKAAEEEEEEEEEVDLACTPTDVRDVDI
CDK4/Cyclin D1, sequence (P11802 whole entry): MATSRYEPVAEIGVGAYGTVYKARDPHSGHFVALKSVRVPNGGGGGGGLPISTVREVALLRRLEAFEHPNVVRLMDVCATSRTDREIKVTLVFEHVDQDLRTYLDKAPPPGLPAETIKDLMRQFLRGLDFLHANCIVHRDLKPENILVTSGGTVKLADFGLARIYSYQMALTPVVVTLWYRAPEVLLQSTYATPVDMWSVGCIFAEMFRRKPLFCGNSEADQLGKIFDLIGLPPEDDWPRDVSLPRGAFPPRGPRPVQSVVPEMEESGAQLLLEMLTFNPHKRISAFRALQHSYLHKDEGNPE
CDK4/Cyclin D1, sequence (P24385 whole entry partner): as the sequence (P24385 whole entry partner) above
CDK9/Cyclin T1, sequence (P50750 whole entry): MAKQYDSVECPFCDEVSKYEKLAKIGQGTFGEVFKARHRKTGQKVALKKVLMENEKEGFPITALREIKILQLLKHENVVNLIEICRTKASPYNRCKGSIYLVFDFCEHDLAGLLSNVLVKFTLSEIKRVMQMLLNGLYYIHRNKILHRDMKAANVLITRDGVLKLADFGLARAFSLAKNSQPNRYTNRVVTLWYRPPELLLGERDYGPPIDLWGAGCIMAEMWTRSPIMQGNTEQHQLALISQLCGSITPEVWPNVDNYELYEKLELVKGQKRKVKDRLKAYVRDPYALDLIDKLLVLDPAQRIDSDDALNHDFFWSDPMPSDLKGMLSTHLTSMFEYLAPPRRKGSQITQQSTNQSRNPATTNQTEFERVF
CDK9/Cyclin T1, sequence (O60563 whole entry partner): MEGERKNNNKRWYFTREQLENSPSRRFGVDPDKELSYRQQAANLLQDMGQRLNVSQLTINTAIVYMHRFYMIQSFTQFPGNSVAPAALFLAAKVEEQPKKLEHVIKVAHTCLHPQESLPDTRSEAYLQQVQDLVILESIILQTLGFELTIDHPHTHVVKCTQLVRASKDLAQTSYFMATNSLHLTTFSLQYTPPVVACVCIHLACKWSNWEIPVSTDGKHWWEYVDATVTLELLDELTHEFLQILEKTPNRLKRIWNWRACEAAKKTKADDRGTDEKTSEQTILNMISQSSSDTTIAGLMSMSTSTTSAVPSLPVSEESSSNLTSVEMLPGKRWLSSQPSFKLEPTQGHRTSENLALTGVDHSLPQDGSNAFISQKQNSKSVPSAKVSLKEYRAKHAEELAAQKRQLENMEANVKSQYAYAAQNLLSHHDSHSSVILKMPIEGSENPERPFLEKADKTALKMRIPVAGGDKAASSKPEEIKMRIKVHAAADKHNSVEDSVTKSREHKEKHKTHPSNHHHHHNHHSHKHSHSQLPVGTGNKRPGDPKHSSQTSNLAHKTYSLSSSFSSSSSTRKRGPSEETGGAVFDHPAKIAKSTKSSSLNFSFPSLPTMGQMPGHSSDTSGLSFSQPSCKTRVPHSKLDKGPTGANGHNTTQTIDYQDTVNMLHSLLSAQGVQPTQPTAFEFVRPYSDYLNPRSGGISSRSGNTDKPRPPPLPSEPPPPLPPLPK

One may read the IC50 as the concentration at which inhibition is half-maximal. On to `[2H]C([2H])([2H])NS(=O)(=O)c1ccc(Nc2ncc(C(F)(F)F)c(O[C@H]3CCOC[C@H]3O)n2)cc1` [Compound E2], for which the half-inhibitory concentration (IC50) in experiment [1], in experiment [2] and in experiment [3] was no less than 1 µM throughout.

For `[2H]C([2H])([2H])NS(=O)(=O)c1ccc(Nc2ncc(C(F)(F)F)c(O[C@@H]3CCOC[C@H]3O)n2)cc1` [Compound E3], the IC50 in experiment [2] was no less than 1 µM.

Consider `[2H]C([2H])([2H])NS(=O)(=O)c1ccc(Nc2ncc(C(F)(F)F)c(O[C@H]3CCOC[C@@H]3O)n2)cc1` [Compound E4], for which the IC50 in experiment [1], in experiment [2] and in experiment [3] was no less than 1 µM in each case.

Take `NS(=O)(=O)c1ccc(Nc2ncc(C(F)(F)F)c(O[C@@H]3CCOC[C@@H]3O)n2)cc1` [Compound E7, 4-((4-(((3S,4R)-3-hydroxytetrahydro-2H-pyran-4-yl)oxy)-5-(trifluoromethyl)pyrimidin-2-yl)amino)benzenesulfonamide]: the concentration for half-maximal inhibition (IC50) in experiment [3] and in experiment [4] was no less than 1 µM in each case.
